Experimental data from PubChem BioAssay AID248 (DTP/NCI, 2004).
Values joined by “and” are separate entries in the source; they are usually repeats but may differ in a detail not shown here. Equal entries are not always repeated. Inconclusive results and toxic doses are left out. No stated cut-off is given here; in the data, active means T/C of 150% or more; inactive means T/C below 125%.

Tested on: L1210 leukemia ip in BDF1 mice, survival T/C
Test: NCI In Vivo Anticancer Drug Screen. Data for tumor model L1210 Leukemia (intraperitoneal) in B6D2F1 (BDF1) mice
Conditions: endpoint: mean survival time, higher = longer survival
Method in brief: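 Transplanted-tumor mice were given test agent; controls received vehicle only. Survival readings from the two groups were divided (treated over control).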

[1] = dose: 100.0 mg/kg/injection, schedule: Q01DX009 (ip), vehicle: saline with Tween-80
[2] = dose: 100.0 mg/kg/injection, schedule: Q04DX003 (ip), vehicle: Klucel (hydroxypropylcellulose) (HPC)
[3] = dose: 200.0 mg/kg/injection, schedule: Q01DX009 (ip), vehicle: saline with Tween-80
[4] = dose: 200.0 mg/kg/injection, schedule: Q04DX003 (ip), vehicle: Klucel (hydroxypropylcellulose) (HPC)
[5] = dose: 400.0 mg/kg/injection, schedule: Q01DX009 (ip), vehicle: saline with Tween-80
[6] = dose: 400.0 mg/kg/injection, schedule: Q04DX003 (ip), vehicle: Klucel (hydroxypropylcellulose) (HPC)
[7] = dose: 100.0 mg/kg/injection, schedule: Q04DX003 (ip), vehicle: saline with Tween-80
[8] = dose: 200.0 mg/kg/injection, schedule: Q04DX003 (ip), vehicle: saline with Tween-80
[9] = dose: 400.0 mg/kg/injection, schedule: Q04DX003 (ip), vehicle: saline with Tween-80
[10] = dose: 100.0 mg/kg/injection, schedule: Q01DX001 (ip), vehicle: saline
[11] = dose: 200.0 mg/kg/injection, schedule: Q01DX001 (ip), vehicle: saline
[12] = dose: 400.0 mg/kg/injection, schedule: Q01DX001 (ip), vehicle: saline
[13] = dose: 100.0 mg/kg/injection, schedule: Q04DX003 (ip), vehicle: saline
[14] = dose: 50.0 mg/kg/injection, schedule: Q01DX009 (ip), vehicle: saline with Tween-80
[15] = dose: 200.0 mg/kg/injection, schedule: Q04DX003 (ip), vehicle: saline
[16] = dose: 100.0 mg/kg/injection, schedule: Q04DX002 (ip), vehicle: saline with Tween-80

Measured: T/C

Cc1cc(C)c(CCc2cc(C)c(C)cc2C)cc1C
inactive: [1] 93 % of control | [2] 104 % of control | [3] 92 % of control | [4] 93 % of control | [5] 87 % of control | [6] 109 % of control

CCOc1ccc(/C=N/NC(=O)c2ccc(O)c(OC)c2)cc1OC
inactive: [1] 103 % of control | [3] 92 % of control | [5] 96 % of control

CCCOC(=O)COc1ccccc1
inactive: [7] 96 % of control | [8] 96 % of control | [9] 93 % of control

O=[N+]([O-])c1sc2ccccc2c1/C=C/c1csc2ccccc12
inactive: [10] 87 % of control | [11] 91 % of control | [12] 97 % of control

Cc1ccc(NCN2C(=O)c3ccccc3C2=O)c(C)c1
inactive: [2] 105 % of control | [4] 106 % of control | [6] 94 % of control

CN(C)C(=O)c1cc[n+](Cc2ccc(Cl)c(Cl)c2)cc1
inactive: [13] 105 % of control

C=CCOc1ccccc1OCC=C
inactive: dose: 100.0 mg/kg/injection, schedule: Q01DX001 (ip), vehicle: carboxymethylcellulose (CMC) 107 % of control | dose: 200.0 mg/kg/injection, schedule: Q01DX001 (ip), vehicle: carboxymethylcellulose (CMC) 102 % of control | dose: 400.0 mg/kg/injection, schedule: Q01DX001 (ip), vehicle: carboxymethylcellulose (CMC) 100 % of control

CC(CN1CCN(C)CC1)CN1c2ccccc2Sc2ccc(C(F)(F)F)cc21 (configuration not stated)
inactive: dose: 3.12 mg/kg/injection, schedule: Q01DX009 (ip), vehicle: saline 101 % of control | dose: 6.25 mg/kg/injection, schedule: Q01DX009 (ip), vehicle: saline 106 % of control | dose: 12.5 mg/kg/injection, schedule: Q01DX009 (ip), vehicle: saline 113 % of control | dose: 25.0 mg/kg/injection, schedule: Q01DX009 (ip), vehicle: saline with Tween-80 111 % of control | dose: 25.0 mg/kg/injection, schedule: Q01DX009 (ip), vehicle: saline 117 % of control | dose: 25.0 mg/kg/injection, schedule: Q04DX003 (ip), vehicle: saline 101 % of control | [14] 111 % of control | dose: 50.0 mg/kg/injection, schedule: Q01DX009 (ip), vehicle: saline 98 % of control | dose: 50.0 mg/kg/injection, schedule: Q04DX003 (ip), vehicle: saline 113 % of control | [1] 96 % of control | [7] 107 % of control

CC(=O)C(C(C)=O)C1C=CC=CC=C1
inactive: [14] 93 % of control | [1] 104 % of control | [13] 95 % of control | [3] 86 % of control | [15] 122 % of control

CCOC(=O)/C=C\COC(=O)CC#N
inactive: [1] 102 % of control | [3] 107 % of control | [5] 98 % of control

CC(C(c1ccc(Br)cc1)c1ccccc1Cl)[N+](=O)[O-] (configuration not stated)
inactive: [13] 95 % of control | [15] 86 % of control | dose: 400.0 mg/kg/injection, schedule: Q04DX003 (ip), vehicle: saline 101 % of control

Nc1cc(=S)c2[nH]cnc2[nH]1
inactive: dose: 100.0 mg/kg/injection, schedule: Q01DX001 (ip), vehicle: Klucel (hydroxypropylcellulose) (HPC) 92 % of control | dose: 400.0 mg/kg/injection, schedule: Q01DX001 (ip), vehicle: Klucel (hydroxypropylcellulose) (HPC) 88 % of control

CC1=CC(=O)C2=C(C)C[C@H](O)[C@@H]3[C@H](OC(=O)[C@H]3C)[C@@H]12
inactive: dose: 100.0 mg/kg/injection, schedule: Q04DX002 (ip), vehicle: saline 100 % of control | dose: 200.0 mg/kg/injection, schedule: Q04DX002 (ip), vehicle: saline 89 % of control | dose: 400.0 mg/kg/injection, schedule: Q04DX002 (ip), vehicle: saline 95 % of control

CCC(C)Nc1ccc(NS(=O)(=O)CCl)cc1 (configuration not stated)
inactive: dose: 25.0 mg/kg/injection, schedule: Q04DX002 (ip), vehicle: saline with Tween-80 97 % of control | dose: 50.0 mg/kg/injection, schedule: Q04DX002 (ip), vehicle: saline with Tween-80 106 % of control | [16] 100 % of control

O=C1OC(/C=C/c2ccccc2)=NC/1=C\c1cc(Br)ccc1O
inactive: [16] 104 % of control | dose: 200.0 mg/kg/injection, schedule: Q04DX002 (ip), vehicle: saline with Tween-80 95 % of control and 97 % of control | dose: 400.0 mg/kg/injection, schedule: Q04DX002 (ip), vehicle: saline with Tween-80 104 % of control and 114 % of control

CCOC(=O)C(C)(Br)C(Br)c1ccc([N+](=O)[O-])cc1 (configuration not stated)
inactive: dose: 100.0 mg/kg/injection, schedule: Q01DX009 (ip), vehicle: Klucel (hydroxypropylcellulose) (HPC) 96 % of control | [2] 101 % of control | dose: 200.0 mg/kg/injection, schedule: Q01DX009 (ip), vehicle: Klucel (hydroxypropylcellulose) (HPC) 93 % of control | [4] 101 % of control | dose: 400.0 mg/kg/injection, schedule: Q01DX009 (ip), vehicle: Klucel (hydroxypropylcellulose) (HPC) 98 % of control | [6] 108 % of control

C=C/C=C/CC=C
inactive: [10] 107 % of control | [11] 107 % of control | [12] 109 % of control

CCOC(=O)C(=O)c1ccccc1
inactive: [1] 100 % of control | [7] 96 % of control | [3] 103 % of control | [8] 103 % of control | [5] 97 % of control | [9] 103 % of control

O=S(=O)(NCCCl)c1ccc(Br)cc1
inactive: dose: 100.0 mg/kg/injection, schedule: Q01DX001 (ip), vehicle: other 101 % of control | [7] 95 % of control | dose: 200.0 mg/kg/injection, schedule: Q01DX001 (ip), vehicle: other 90 % of control | [8] 103 % of control | dose: 400.0 mg/kg/injection, schedule: Q01DX001 (ip), vehicle: other 101 % of control | [9] 97 % of control

CC12CCC3c4ccc(OCC5CO5)cc4CCC3C1CCC2=O (configuration not stated)
inactive: [14] 97 % of control | [1] 97 % of control | [3] 94 % of control

CCCCCC1OC1C/C=C/CCCCCCCC(=O)OCC(COC(=O)CCCCCCC/C=C/CC1OC1CCCCC)OC(=O)CCCCCCC/C=C/CC1OC1CCCCC (configuration not stated)
inactive: [10] 109 % of control | [11] 95 % of control | [12] 97 % of control
